Assay [1] deals with T1, Bromodomain-containing protein 4 (Homo sapiens, UniProt O60885). As to the kind of experiment: Inhibition of recombinant human His-tagged BRD4 BD1 using biotin-labelled histone H4 acetylated peptide as substrate by TR-FRET assay.
The target in assay [2] is T1, Bromodomain-containing protein 4. In words: Inhibition of recombinant human His-tagged BRD4 BD2 using biotin-labelled histone H4 acetylated peptide as substrate by TR-FRET assay.

For `CNC(=O)N1N=C(c2ccc(N3CCN(C(=O)COCCOCCOCCOCC(=O)Nc4cccc5c4C(=O)N(C4CCC(=O)NC4=O)C5=O)CC3)cc2)c2cc(OC)c(OC)cc2C[C@@H]1C` (stereo partly drawn), the IC50 was determined as 18.6 nM in assay [1] and 78.4 nM in assay [2].
As for `CNC(=O)N1N=C(c2ccc(N3CCN(C(=O)CCOCCOCCOCCNc4ccc5c(c4)C(=O)N(C4CCC(=O)NC4=O)C5=O)CC3)cc2)c2cc(OC)c(OC)cc2C[C@@H]1C` (stereo partly drawn), the IC50 in assay [1] was determined as 19.3 nM; in assay [2] it was 166 nM.
Take `CNC(=O)N1N=C(c2ccc(N3CCN(C(=O)COCCOCCOCC(=O)Nc4cccc5c4C(=O)N(C4CCC(=O)NC4=O)C5=O)CC3)cc2)c2cc(OC)c(OC)cc2C[C@@H]1C` (stereo partly drawn): the 50% inhibitory concentration (IC50) was 14.9 nM in assay [1] and 150 nM in assay [2].
With `CNC(=O)N1N=C(c2ccc(C(=O)NCCCCNC(=O)COc3cccc4c3C(=O)N(C3CCC(=O)NC3=O)C4=O)cc2)c2cc(OC)c(OC)cc2C[C@@H]1C` (stereo partly drawn), the values for the IC50 in assay [1] and in assay [2] were 24.9 nM and 136 nM, respectively.
